Data: US20080009418A1, “Selective Inhibitors” (Alchemia LTD., priority 2004, published 2008)

Key:
[1] = molecular target: T1, Human δ-opioid (DOP) (Homo sapiens, UniProt P41143); assay: Radioligand binding, human δ-opioid (DOP) membranes, FlashPlate, [3H]-Bremazocine; conditions: compound at 10 μM; for A1 radioligand binding inhibition: human δ-opioid (DOP) membranes
T1 construct: purchased Perkin Elmer Biosignal
Method in brief: (§1)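 Cloned human receptor membranes were coated onto FlashPlate wells and incubated with radioligand and compound (added from a 0.5 mM DMSO daughter plate) for 1 hour at room temperature in the dark. Scintillation counting gave percent inhibition, with DMSO defining total and reference ligand defining non-specific binding.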

[2] = molecular target: T2, Human κ-Opioid (KOP) (Homo sapiens, UniProt P41145); assay: Radioligand binding, human κ-opioid (KOP) membranes, filtration, [3H]-Diprenorphine; conditions: compound at 10 μM; for A2 radioligand binding inhibition: human κ-opioid (KOP) membranes
T2 construct: purchased Perkin Elmer Biosignal
T2 sequence (P41145 whole entry): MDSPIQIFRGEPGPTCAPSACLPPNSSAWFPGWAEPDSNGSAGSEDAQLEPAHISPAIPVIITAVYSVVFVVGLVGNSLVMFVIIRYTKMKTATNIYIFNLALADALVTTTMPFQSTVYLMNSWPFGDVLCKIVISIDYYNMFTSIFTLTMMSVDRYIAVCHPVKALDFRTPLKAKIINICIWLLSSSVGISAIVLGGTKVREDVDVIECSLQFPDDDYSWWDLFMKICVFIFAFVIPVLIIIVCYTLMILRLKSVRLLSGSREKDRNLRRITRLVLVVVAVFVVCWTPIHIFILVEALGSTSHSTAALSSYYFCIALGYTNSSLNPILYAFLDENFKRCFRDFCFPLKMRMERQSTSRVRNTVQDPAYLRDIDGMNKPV
Method in brief: (§2)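 Percent inhibition of radioligand binding measured on recombinant human membranes: NK1 with [125I]-Substance P, KOP with [3H]-Diprenorphine. Incubation 1 h at room temperature, then harvest onto 0.3% PEI-soaked filters, cold Tris-HCl pH 7.4 washes and scintillation counting; non-specific binding from reference ligand wells.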

[3] = molecular target: T3, Human Melanocortin (MC3) (Homo sapiens, UniProt P41968); assay: Radioligand binding, human melanocortin MC3 membranes, FlashPlate, [125I]-NDP-αMSH; conditions: compound at 10 μM; for A3 radioligand binding inhibition: human melanocortin MC3 membranes
T3 construct: purchased Perkin Elmer Biosignal
T3 sequence (P41968 whole entry): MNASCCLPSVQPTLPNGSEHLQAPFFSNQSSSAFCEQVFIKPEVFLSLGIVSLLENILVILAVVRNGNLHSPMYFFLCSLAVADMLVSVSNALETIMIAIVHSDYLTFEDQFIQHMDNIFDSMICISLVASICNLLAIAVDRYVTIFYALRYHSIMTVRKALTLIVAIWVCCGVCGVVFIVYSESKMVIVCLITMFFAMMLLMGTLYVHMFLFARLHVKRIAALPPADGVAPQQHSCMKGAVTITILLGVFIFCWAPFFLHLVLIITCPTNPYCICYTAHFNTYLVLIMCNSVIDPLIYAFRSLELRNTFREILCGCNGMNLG
Method in brief: as §1

[4] = molecular target: T4, Human Melanocortin (MC4) (Homo sapiens, UniProt P32245); assay: Radioligand binding, human melanocortin MC4 membranes, FlashPlate, [125I]-NDP-αMSH; conditions: compound at 10 μM; for A4 radioligand binding inhibition: human melanocortin MC4 membranes
T4 construct: purchased Perkin Elmer Biosignal
T4 sequence (P32245 whole entry): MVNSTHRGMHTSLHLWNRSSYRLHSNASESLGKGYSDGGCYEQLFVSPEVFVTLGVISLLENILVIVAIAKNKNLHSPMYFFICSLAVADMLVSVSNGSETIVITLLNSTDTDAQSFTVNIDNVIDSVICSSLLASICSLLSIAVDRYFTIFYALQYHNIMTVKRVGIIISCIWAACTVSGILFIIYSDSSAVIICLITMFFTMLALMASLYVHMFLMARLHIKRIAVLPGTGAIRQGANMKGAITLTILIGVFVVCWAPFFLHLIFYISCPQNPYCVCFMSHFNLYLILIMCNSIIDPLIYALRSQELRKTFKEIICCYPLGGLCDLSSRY
Method in brief: as §1

[5] = molecular target: T5, Human melanocortin (MC5) (Homo sapiens, UniProt P33032); assay: Radioligand binding, human melanocortin MC5 membranes, FlashPlate, [125I]-NDP-αMSH; conditions: compound at 10 μM; for A5 radioligand binding inhibition: human melanocortin MC5 membranes
T5 construct: purchased Perkin Elmer Biosignal
T5 sequence (P33032 whole entry): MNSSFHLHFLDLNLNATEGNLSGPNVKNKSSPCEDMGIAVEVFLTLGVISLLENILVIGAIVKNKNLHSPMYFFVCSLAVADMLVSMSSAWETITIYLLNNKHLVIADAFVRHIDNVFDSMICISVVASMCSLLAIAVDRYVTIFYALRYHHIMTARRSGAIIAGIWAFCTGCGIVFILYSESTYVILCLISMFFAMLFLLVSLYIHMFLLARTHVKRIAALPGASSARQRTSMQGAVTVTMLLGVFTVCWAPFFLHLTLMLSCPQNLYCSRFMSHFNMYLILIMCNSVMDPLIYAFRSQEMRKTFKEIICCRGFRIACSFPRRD
Method in brief: as §1

[6] = molecular target: T6, Human melanin-concentrating hormone (MCH1) (Homo sapiens, UniProt Q99705); assay: Radioligand binding, human melanin-concentrating hormone MCH1 membranes, FlashPlate, [125I]-S36057; conditions: compound at 10 μM; for A6 radioligand binding inhibition: human MCH1 membranes
T6 construct: purchased Perkin Elmer Biosignal
T6 sequence (Q99705 whole entry): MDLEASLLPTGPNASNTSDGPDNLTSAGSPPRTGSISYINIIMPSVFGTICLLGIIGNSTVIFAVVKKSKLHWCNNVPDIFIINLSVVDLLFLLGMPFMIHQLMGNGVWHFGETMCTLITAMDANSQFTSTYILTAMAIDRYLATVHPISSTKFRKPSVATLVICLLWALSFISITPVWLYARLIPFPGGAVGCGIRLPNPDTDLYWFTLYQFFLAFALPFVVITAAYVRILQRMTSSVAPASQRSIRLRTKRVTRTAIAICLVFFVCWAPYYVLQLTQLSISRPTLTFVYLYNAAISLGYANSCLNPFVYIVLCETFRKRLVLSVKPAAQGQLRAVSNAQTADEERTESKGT
Method in brief: as §1

[7] = molecular target: T7, Human μ-opioid (MOP) (Homo sapiens, UniProt P35372); assay: Radioligand binding, human μ-opioid (MOP) membranes, FlashPlate, [3H]-Naloxone; conditions: compound at 10 μM; for A7 radioligand binding inhibition: human μ-opioid (MOP) membranes
T7 construct: purchased Perkin Elmer Biosignal
T7 sequence (P35372 whole entry): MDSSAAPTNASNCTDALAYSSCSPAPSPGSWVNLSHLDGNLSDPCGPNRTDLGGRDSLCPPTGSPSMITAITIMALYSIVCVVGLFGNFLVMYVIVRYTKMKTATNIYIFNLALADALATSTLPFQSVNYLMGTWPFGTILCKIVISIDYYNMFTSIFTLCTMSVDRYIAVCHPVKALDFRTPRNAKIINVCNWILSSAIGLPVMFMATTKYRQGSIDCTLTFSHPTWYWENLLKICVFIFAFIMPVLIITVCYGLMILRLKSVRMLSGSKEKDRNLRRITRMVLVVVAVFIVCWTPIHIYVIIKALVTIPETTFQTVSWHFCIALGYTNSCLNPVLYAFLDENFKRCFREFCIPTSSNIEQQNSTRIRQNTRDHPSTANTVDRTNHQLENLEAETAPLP
Method in brief: as §1

[8] = molecular target: T8, Human neurokinin (NK1) (Homo sapiens, UniProt P25103); assay: Radioligand binding, human neurokinin NK1 membranes, filtration, [125I]-Substance P; conditions: compound at 10 μM; for A8 radioligand binding inhibition: human neurokinin NK1 membranes
T8 construct: purchased Perkin Elmer Biosignal
T8 sequence (P25103 whole entry): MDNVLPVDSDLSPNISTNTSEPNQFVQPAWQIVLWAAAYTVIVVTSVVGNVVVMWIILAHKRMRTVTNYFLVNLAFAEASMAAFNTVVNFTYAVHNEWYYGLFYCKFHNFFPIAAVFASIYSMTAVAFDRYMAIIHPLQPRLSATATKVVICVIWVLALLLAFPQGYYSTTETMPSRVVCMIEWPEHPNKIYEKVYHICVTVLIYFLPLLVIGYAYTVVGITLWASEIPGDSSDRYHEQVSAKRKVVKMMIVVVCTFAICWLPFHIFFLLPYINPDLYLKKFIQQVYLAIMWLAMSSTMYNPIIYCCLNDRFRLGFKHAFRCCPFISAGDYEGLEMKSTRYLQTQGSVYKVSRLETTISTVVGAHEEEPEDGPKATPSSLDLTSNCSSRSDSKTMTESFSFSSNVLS
Method in brief: as §2

[9] = molecular target: T9, Human neuropeptide Y (NPY-Y1) (Homo sapiens, UniProt P25929); assay: Radioligand binding, human neuropeptide Y NPY-Y1 membranes, FlashPlate, [125I]-PYY; conditions: compound at 10 μM; for A9 radioligand binding inhibition: human NPY-Y1 membranes
T9 construct: purchased Perkin Elmer Biosignal
T9 sequence (P25929 1-384): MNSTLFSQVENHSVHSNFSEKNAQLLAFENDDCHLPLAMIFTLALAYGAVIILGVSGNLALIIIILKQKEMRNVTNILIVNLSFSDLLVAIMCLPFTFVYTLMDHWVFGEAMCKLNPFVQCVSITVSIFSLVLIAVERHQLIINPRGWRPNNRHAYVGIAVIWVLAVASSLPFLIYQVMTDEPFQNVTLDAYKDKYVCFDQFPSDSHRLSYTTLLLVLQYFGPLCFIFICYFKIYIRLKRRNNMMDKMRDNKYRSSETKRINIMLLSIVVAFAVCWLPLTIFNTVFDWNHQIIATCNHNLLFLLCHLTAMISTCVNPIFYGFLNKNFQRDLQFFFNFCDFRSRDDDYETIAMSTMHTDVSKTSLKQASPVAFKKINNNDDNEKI
Method in brief: as §1

[10] = molecular target: T10, Human opioid (ORL1) (Homo sapiens, UniProt P41146); assay: Radioligand binding, human opioid ORL1 membranes, FlashPlate, [125I]-Nociceptin; conditions: compound at 10 μM; for A10 radioligand binding inhibition: human ORL1 membranes
T10 construct: purchased Perkin Elmer Biosignal
T10 sequence (P41146 whole entry): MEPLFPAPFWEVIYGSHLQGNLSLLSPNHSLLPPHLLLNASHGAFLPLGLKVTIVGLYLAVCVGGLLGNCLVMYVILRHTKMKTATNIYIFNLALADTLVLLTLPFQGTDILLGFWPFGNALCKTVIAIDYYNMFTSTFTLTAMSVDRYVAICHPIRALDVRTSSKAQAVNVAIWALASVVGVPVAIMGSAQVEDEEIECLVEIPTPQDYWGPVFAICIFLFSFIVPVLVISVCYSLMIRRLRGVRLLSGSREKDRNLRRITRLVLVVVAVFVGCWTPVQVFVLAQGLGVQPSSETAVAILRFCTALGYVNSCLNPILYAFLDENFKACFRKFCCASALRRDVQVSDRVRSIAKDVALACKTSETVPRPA
Method in brief: as §1

[11] = molecular target: T11, Mouse urotensin (mUR2) (Mus musculus, UniProt Q8VIH9); assay: Radioligand binding, mouse urotensin mUR2 membranes, FlashPlate, [125I]-Urotensin II; conditions: compound at 10 μM; for A11 radioligand binding inhibition: mouse urotensin mUR2 membranes
T11 construct: purchased Perkin Elmer Biosignal
T11 sequence (Q8VIH9 1-385): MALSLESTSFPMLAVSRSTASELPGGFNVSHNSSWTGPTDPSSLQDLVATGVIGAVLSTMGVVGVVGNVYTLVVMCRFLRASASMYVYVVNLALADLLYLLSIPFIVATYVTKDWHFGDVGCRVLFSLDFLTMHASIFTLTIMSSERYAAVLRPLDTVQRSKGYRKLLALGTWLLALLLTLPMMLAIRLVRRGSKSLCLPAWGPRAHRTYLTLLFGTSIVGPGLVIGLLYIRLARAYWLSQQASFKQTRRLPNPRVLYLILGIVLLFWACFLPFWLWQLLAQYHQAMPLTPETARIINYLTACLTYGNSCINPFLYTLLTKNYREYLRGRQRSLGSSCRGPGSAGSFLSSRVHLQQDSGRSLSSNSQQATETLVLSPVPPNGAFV
Method in brief: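 Cloned mouse urotensin (mUR2) receptor membranes from Perkin Elmer Biosignal were immobilized in FlashPlate microplates using a proprietary coating. Each well got 19.5 μl buffer, then 0.5 μl of DMSO, reference ligand, or compound. Adding 5 μl of [125I]-Urotensin II, diluted to 5× final concentration in binding buffer, started binding. Plates were sealed with TopSeal-A and incubated 1 hour at room temperature in the dark. Wells were counted for 30 seconds each on a TopCount after a 60-second delay, and percentage inhibition was calculated.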

T1 sequence (P41143 whole entry): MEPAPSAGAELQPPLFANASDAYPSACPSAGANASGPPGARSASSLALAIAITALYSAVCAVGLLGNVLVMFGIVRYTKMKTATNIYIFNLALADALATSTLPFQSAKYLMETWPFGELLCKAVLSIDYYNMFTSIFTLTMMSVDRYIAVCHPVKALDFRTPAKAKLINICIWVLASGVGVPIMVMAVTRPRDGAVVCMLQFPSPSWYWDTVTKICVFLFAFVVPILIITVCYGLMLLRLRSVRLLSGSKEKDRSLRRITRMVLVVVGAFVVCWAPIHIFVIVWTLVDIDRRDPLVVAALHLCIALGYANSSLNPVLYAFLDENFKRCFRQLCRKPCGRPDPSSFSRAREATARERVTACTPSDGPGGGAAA

Row | SMILES | A1 radioligand binding inhibition [1] | A2 radioligand binding inhibition [2] | A3 radioligand binding inhibition [3] | A4 radioligand binding inhibition [4] | A5 radioligand binding inhibition [5] | A6 radioligand binding inhibition [6] | A7 radioligand binding inhibition [7] | A8 radioligand binding inhibition [8] | A9 radioligand binding inhibition [9] | A10 radioligand binding inhibition [10] | A11 radioligand binding inhibition [11] | further results
1 | COC[C@H]1OC(OCc2ccc(Cl)cc2)[C@H](NC(=O)CCNC(=N)N)[C@@H](OCc2ccccc2)[C@@H]1O (stereo partly drawn) [compound 34] | − (“−” indicates less than 50% inhibition at 10 μM) | − (“−” indicates less than 50% inhibition at 10 μM) | − (“−” indicates less than 50% inhibition at 10 μM) | − (“−” indicates less than 50% inhibition at 10 μM) | − (“−” indicates less than 50% inhibition at 10 μM) | − (“−” indicates less than 50% inhibition at 10 μM) | − (“−” indicates less than 50% inhibition at 10 μM) | + (“+” indicates greater than 50% inhibition at 10 μM) | − (“−” indicates less than 50% inhibition at 10 μM) | − (“−” indicates less than 50% inhibition at 10 μM) | − (“−” indicates less than 50% inhibition at 10 μM) | 
2 | N=C(N)NCCC(=O)N[C@H]1C(OCc2ccc(Cl)cc2)O[C@H](COCc2ccc3ccccc3c2)[C@@H](O)[C@@H]1OCc1ccc(-c2ccccc2)cc1 (stereo partly drawn) [compound 534] |  |  |  |  |  |  |  |  |  |  |  | A1: inhibition of radioligand binding, human δ-opioid (DOP) ([1]; [3H]-Bremazocine): − (“−” indicates less than 50% inhibition at 10 μM); A2: inhibition of radioligand binding, human κ-opioid (KOP) ([2]; [3H]-Diprenorphine): − (“−” indicates less than 50% inhibition at 10 μM); A3: inhibition of radioligand binding, human melanocortin (MC3) ([3]; [125I]-NDP-αMSH): + (“+” indicates greater than 50% inhibition at 10 μM); A4: inhibition of radioligand binding, human melanocortin (MC4) ([4]; [125I]-NDP-αMSH): + (“+” indicates greater than 50% inhibition at 10 μM); A5: inhibition of radioligand binding, human melanocortin (MC5) ([5]; [125I]-NDP-αMSH): + (“+” indicates greater than 50% inhibition at 10 μM); A6: inhibition of radioligand binding, human melanin-concentrating hormone (MCH1) ([6]; [125I]-S36057): + (“+” indicates greater than 50% inhibition at 10 μM); A7: inhibition of radioligand binding, human μ-opioid (MOP) ([7]; [3H]-Naloxone): − (“−” indicates less than 50% inhibition at 10 μM); A8: inhibition of radioligand binding, human neurokinin (NK1) ([8]; [125I]-Substance P): + (“+” indicates greater than 50% inhibition at 10 μM); A9: inhibition of radioligand binding, human neuropeptide Y (NPY-Y1) ([9]; [125I]-PYY): − (“−” indicates less than 50% inhibition at 10 μM); A10: inhibition of radioligand binding, human opioid (ORL1) ([10]; [125I]-Nociceptin): − (“−” indicates less than 50% inhibition at 10 μM); A11: inhibition of radioligand binding, mouse urotensin (mUR2) ([11]; [125I]-Urotensin II): − (“−” indicates less than 50% inhibition at 10 μM)
3 | CO[C@H]1[C@H](O)[C@@H](COCc2ccc(Cl)cc2)OC(OCc2ccc(-c3ccccc3)cc2)[C@@H]1NC(=O)CNC(=N)N (stereo partly drawn) [compound 62] | − (“−” indicates less than 50% inhibition at 10 μM) | − (“−” indicates less than 50% inhibition at 10 μM) | + (“+” indicates greater than 50% inhibition at 10 μM) | + (“+” indicates greater than 50% inhibition at 10 μM) | + (“+” indicates greater than 50% inhibition at 10 μM) | + (“+” indicates greater than 50% inhibition at 10 μM) | − (“−” indicates less than 50% inhibition at 10 μM) | + (“+” indicates greater than 50% inhibition at 10 μM) | − (“−” indicates less than 50% inhibition at 10 μM) | + (“+” indicates greater than 50% inhibition at 10 μM) | − (“−” indicates less than 50% inhibition at 10 μM) | 
